Values of other authors in patent US20240245680A1, “Methods of Treating Retinal Vasculopathies” (Unity Biotechnology, Inc., priority 2021, published 2024).

How the values were obtained:
[1] = biological target: T1, GLS2 (Homo sapiens, UniProt Q9UI32); conditions: cited from earlier work
T1 sequence (Q9UI32 15-602): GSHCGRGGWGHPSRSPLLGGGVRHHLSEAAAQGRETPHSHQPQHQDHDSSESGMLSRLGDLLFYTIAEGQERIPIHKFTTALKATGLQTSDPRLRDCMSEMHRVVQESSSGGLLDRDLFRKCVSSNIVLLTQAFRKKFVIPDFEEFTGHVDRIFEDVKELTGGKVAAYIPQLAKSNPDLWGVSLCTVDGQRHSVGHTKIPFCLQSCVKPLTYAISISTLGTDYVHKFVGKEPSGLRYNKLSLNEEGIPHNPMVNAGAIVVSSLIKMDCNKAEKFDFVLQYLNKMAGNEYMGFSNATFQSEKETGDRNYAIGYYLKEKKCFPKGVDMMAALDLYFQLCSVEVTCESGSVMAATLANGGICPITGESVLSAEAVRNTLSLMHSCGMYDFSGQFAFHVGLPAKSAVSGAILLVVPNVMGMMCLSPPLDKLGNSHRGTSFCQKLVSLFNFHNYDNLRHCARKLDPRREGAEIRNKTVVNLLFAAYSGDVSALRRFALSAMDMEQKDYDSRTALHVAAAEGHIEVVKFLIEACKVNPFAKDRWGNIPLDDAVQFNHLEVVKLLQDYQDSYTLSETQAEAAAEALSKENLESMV

[2] = biological target: T2, glutaminase C (GAC) (Homo sapiens, UniProt O94925); conditions: cited from earlier work
T2 sequence (O94925 55-598 isoform O94925-3 limits assumed): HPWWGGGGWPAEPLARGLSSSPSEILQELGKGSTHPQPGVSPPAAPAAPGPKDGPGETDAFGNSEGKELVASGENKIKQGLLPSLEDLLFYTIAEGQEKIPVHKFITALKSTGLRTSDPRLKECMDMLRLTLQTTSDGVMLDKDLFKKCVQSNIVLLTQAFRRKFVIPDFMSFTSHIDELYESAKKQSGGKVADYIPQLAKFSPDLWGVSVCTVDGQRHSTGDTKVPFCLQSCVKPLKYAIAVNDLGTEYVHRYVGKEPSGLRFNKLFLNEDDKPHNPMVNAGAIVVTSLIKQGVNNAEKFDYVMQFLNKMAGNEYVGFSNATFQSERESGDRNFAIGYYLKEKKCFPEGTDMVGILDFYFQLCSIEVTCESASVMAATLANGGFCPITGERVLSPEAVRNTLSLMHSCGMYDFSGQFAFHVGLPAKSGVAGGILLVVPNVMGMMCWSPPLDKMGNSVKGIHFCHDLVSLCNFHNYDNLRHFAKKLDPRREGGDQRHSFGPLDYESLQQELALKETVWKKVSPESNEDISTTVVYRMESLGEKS

For `O=C(Cc1ccccc1)Nc1nnc(NC2CCN(c3nnc(NC(=O)Cc4ccccc4)s3)CC2)s1` [UPGL00004], the “selectivity for GAC over GLS2” value [1] is given as “high selectivity” and the IC50 [2] is given as 29 nM.
